Assay results: patent US9725465B2, “Biaryl acetamide compounds and methods of use thereof” (Ambit Biosciences Corporation, priority 2013, dated 2017)

Tests used:
FLT3-ITD = FLT3-ITD (Homo sapiens (Human), UniProt P36888, INS600HVDFREYEYD); assay: pFLT3 MSD assay, Ba/F3 FLT3-ITD; assay type: cell-based; settings: Ba/F3 FLT3-ITD cells, 2 hours, read-out: BaF3-FLT3-ITD pFlt3 IC50
Protocol: In certain other embodiments, the compounds disclosed herein are tested in a FLT3 phosphorylation assay to determine their cellular potency against one or both of FLT3-ITD and FLT3 tyrosine kinase domain mutants. In certain embodiments, the FLT3 phosphorylation assay assesses the potency of compounds as FLT3 inhibitors by measuring the reduction in formation of phosphorylated FLT3 in the cells.
Gene constructs containing the human FLT3 sequences FLT3-ITD, FLT3-ITD-F691L, FLT3-ITD-D835V and FLT3-D835V were synthesized by reverse translation of the human protein sequences, with codons optimized for mammalian expression. Sequence of the internal tandem duplication (ITD) was based on the MV4-11 ITD sequence. […] Viruses were transduced into the IL-3-dependent, murine macrophage cell line, Ba/F3, and selected for puromycin resistance and IL-3 independence. All cell lines were cloned by limiting dilution and clones were used for all subsequent cell assays.
Briefly, cell lines were serum starved overnight in media containing 0.5% FBS. Cells were plated at 200,000 cells/well in 96-well round bottom plates in low serum, and 3-fold serial dilutions of test compounds were added for 2 hours at 37° C. […] After an overnight incubation at 4° C. shaking at 450 rpm, plates were washed with MSD wash buffer, and captured FLT3 was detected with biotinylated-anti-phosphotyrosine antibody 4G10 (Millipore) and SulfoTAG-streptavidin (MSD) for 1 hour at room temperature, and read on an MSD SECTOR Imager 6000. Percent remaining phospho-FLT3 in compound-treated cells was normalized to DMSO-treated cells, and IC50s were determined using Igor Pro software. All compounds are assayed in duplicate cell and MSD plates.

KIT kinase = KIT kinase (Homo sapiens (Human), UniProt P10721); assay: Competition binding assay (Kd), KIT; settings: competition binding assay
Outline: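 Kd derived from eleven-point threefold serial dilutions of compound competing with bead-bound ligand for kinase; bound kinase eluted and measured by quantitative PCR. Kinase supplied either as a T7 phage fusion or expressed in HEK-293 cells with a DNA tag; DMSO served as control.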

FLT3 kinase = FLT3 kinase (Homo sapiens (Human), UniProt P36888); assay: Competition binding assay (Kd), FLT3; settings: competition binding assay
Chain of FLT3 kinase (P36888 27-993): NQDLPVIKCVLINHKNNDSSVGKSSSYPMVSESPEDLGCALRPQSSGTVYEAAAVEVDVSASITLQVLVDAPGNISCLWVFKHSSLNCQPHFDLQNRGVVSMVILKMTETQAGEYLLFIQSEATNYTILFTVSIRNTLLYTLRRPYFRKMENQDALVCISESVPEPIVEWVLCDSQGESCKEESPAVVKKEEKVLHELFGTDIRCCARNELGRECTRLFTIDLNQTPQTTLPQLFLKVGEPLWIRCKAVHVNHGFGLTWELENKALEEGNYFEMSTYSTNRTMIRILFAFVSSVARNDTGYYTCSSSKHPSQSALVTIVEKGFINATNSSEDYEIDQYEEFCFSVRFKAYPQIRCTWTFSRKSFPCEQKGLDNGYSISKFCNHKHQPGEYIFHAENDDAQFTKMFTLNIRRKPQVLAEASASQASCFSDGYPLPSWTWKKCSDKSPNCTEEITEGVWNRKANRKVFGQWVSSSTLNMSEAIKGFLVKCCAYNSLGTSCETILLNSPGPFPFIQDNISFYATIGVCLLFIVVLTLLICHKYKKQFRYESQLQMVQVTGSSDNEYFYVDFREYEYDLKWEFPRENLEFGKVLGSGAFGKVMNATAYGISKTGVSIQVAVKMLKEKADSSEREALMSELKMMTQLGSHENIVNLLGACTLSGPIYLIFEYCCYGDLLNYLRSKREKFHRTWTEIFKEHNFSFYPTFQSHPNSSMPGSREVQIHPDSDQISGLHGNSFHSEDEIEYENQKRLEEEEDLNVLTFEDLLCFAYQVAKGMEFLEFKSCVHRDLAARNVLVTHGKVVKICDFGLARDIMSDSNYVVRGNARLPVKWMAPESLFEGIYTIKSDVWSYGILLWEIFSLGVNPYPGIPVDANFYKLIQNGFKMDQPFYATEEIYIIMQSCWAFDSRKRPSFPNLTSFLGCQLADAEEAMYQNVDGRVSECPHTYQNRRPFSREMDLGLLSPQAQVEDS

Chain of KIT kinase (P10721 26-976): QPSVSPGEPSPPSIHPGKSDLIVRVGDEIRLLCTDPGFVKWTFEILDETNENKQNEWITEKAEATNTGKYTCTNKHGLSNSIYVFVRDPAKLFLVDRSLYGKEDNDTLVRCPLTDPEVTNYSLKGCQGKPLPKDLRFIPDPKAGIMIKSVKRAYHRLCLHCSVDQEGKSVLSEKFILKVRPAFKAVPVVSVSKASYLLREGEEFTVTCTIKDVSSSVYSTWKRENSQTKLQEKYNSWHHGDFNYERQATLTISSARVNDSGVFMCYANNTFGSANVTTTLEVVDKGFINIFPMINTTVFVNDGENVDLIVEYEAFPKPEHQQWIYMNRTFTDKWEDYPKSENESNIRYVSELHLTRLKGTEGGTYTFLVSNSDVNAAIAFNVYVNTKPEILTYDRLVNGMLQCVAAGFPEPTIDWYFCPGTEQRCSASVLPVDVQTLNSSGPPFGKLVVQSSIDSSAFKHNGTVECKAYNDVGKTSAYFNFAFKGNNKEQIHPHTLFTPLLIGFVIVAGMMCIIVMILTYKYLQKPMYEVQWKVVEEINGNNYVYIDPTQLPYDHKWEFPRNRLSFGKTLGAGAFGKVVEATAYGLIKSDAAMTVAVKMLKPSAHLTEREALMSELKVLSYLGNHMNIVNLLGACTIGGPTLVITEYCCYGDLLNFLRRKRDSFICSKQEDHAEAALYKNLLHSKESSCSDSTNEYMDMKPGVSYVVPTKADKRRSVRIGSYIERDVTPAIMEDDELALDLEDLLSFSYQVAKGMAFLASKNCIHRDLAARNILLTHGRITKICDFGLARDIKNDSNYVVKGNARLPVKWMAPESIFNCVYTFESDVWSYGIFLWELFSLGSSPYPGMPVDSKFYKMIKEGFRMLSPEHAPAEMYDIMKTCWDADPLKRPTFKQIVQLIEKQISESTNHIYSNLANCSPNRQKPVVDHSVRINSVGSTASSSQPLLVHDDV
Chain of FLT3-ITD (P36888 other isoform, or with tags, fused parts or gaps limits assumed, stated change not applied): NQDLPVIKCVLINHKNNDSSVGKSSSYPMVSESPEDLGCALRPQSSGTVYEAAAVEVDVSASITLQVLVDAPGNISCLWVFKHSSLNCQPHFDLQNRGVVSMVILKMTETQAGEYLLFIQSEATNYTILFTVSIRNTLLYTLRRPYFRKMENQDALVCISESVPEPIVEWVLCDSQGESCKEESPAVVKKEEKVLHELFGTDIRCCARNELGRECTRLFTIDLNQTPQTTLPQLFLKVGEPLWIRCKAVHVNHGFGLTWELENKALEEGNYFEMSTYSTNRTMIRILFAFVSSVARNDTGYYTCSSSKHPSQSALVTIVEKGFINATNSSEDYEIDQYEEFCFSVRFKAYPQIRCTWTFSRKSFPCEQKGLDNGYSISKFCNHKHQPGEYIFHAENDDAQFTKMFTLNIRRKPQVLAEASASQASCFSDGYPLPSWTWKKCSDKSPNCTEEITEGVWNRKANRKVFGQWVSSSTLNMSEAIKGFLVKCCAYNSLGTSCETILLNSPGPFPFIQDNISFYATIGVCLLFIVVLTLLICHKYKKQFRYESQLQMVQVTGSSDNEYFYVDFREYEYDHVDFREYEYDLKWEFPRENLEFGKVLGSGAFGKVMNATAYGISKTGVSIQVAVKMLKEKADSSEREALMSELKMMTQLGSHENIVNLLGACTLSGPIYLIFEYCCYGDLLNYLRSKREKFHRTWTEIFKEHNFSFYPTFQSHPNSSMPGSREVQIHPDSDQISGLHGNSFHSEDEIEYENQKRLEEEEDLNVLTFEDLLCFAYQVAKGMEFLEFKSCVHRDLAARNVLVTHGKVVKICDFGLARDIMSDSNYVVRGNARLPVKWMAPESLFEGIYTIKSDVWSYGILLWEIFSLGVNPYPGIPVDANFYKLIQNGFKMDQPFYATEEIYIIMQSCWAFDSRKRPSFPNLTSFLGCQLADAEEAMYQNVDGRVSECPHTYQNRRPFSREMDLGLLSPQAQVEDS

Compound | IC50 (FLT3-ITD) | Kd (KIT kinase) | Kd (FLT3 kinase)
COCCOc1cc2ncc(-c3ccc(CC(=O)Nc4cc(C5(C(F)(F)F)CC5)on4)c(F)c3)nc2cc1OCCOC [Example 125, 2-[4-[6,7-bis(2-methoxyethoxy)quinoxalin-2-yl]-2-fluoro-phenyl]-N-[5-[1-(trifluoro-methyl)cyclopropyl]isoxazol-3-yl]acetamide] | < 10 nM | < 5 nM | < 5 nM
COCCOc1cc2ncc(-c3ccc(CC(=O)Nc4cc(C5(C(F)(F)F)CC5)on4)c(F)c3)cc2cc1OC [Example 126, 2-[2-fluoro-4-[6-methoxy-7-(2-methoxyethoxy)-3-quinolyl]phenyl]-N-[5-[1-(trifluoromethyl)cyclo-propyl]isoxazol-3-yl]acetamide] | < 10 nM | < 5 nM | < 5 nM
COc1cc2cc(-c3ccc(CC(=O)Nc4cc(C5(C(F)(F)F)CC5)on4)c(F)c3)cnc2cc1OCCOC(C)=O [Example 127, 2-[[3-[3-fluoro-4-[2-oxo-2-[[5-[1-(trifluoro-methyl)cyclopropyl]isoxazol-3-yl]amino]ethyl]phenyl]-6-methoxy-7-quinolyl]oxy]ethyl acetate] | < 10 nM | < 5 nM | < 5 nM
COc1cc2cc(-c3ccc(CC(=O)Nc4cc(C5(C(F)(F)F)CC5)on4)c(F)c3)cnc2cc1OC [Example 128, 2-[4-(6,7-dimethoxy-3-quinolyl)-2-fluoro-phenyl]-N-[5-[1-(trifluoro-methyl)cyclopropyl]isoxazol-3-yl]acetamide] | < 10 nM | < 5 nM | < 5 nM
COc1cc2cc(-c3ccc(CC(=O)Nc4cc(C(C)(C)C(F)(F)F)on4)c(F)c3)cnc2cc1OC [Example 129, 2-[4-(6,7-dimethoxy-3-quinolyl)-2-fluoro-phenyl]-N-[5-(2,2,2-trifluoro-1,1-dimethyl-ethyl)isoxazol-3-yl]acetamide] | < 10 nM | < 5 nM | < 5 nM
COc1cc2nc(-c3ccc(CC(=O)Nc4cc(C5(C(F)(F)F)CC5)on4)c(F)c3)cnc2cc1OCCOC(C)=O [Example 130, 2-[2-[3-fluoro-4-[2-oxo-2-[[5-[1-(trifluoromethyl)cyclo-propyl]isoxazol-3-yl]amino]ethyl]phenyl]-7-methoxy-quinoxalin-6-yl]oxyethyl acetate] | < 10 nM | < 5 nM | < 5 nM
COc1cc2nc(-c3ccc(CC(=O)Nc4cc(C5(C(F)(F)F)CC5)on4)c(F)c3)cnc2cc1OCCO [Example 131, 2-[2-fluoro-4-[6-(2-hydroxyethoxy)-7-methoxy-quinoxalin-2-yl]phenyl]-N-[5-[1-(trifluoromethyl)cyclo-propyl]isoxazol-3-yl]acetamide] | < 10 nM | < 5 nM | < 5 nM
CCOC(=O)c1nc2cc(OC)c(OC)cc2nc1-c1ccc(CC(=O)Nc2cc(C3(C(F)(F)F)CC3)on2)c(F)c1 [Example 132, ethyl 3-[3-fluoro-4-[2-oxo-2-[[5-[1-(trifluoro-methyl)cyclopropyl]isoxazol-3-yl]amino]ethyl]phenyl]-6,7-dimethoxy-quinoxaline-2-carboxylate] | > 50 nM | > 50 nM | > 50 nM
COc1cc2nc(C(=O)O)c(-c3ccc(CC(=O)Nc4cc(C5(C(F)(F)F)CC5)on4)c(F)c3)nc2cc1OC [Example 133, 3-[3-fluoro-4-[2-oxo-2-[[5-[1-(trifluoro-methyl)cyclopropyl]isoxazol-3-yl]amino]ethyl]phenyl]-6,7-dimethoxy-quinoxaline-2-carboxylic acid] | > 50 nM | > 50 nM | 20 to 50 nM
COc1cc2nc(-c3ccc(CC(=O)Nc4cc(C5(C(F)(F)F)CC5)on4)c(F)c3)cnc2cc1OCCN1CCCC1 [Example 134, 2-[2-fluoro-4-[7-methoxy-6-(2-pyrrolidin-1-ylethoxy)quinoxalin-2-yl]phenyl]-N-[5-[1-(trifluoromethyl)cyclo-propyl]isoxazol-3-yl]acetamide] | < 10 nM | < 5 nM | < 5 nM
COc1cc2nc(C(N)=O)c(-c3ccc(CC(=O)Nc4cc(C5(C(F)(F)F)CC5)on4)c(F)c3)nc2cc1OC [Example 135, 3-[3-fluoro-4-[2-oxo-2-[[5-[1-(trifluoro-methyl)cyclopropyl]isoxazol-3-yl]amino]ethyl]phenyl]-6,7-dimethoxy-quinoxaline-2-carboxamide] | > 50 nM | > 50 nM | > 50 nM
COc1cc2nc(-c3ccc(CC(=O)Nc4cc(C5(C(F)(F)F)CC5)on4)c(F)c3)cnc2cc1OCCOC(=O)N(C)C [Example 136, 2-[2-[3-fluoro-4-[2-oxo-2-[[5-[1-(trifluoro-methyl)cyclopropyl]isoxazol-3-yl]amino]ethyl]phenyl]-7-methoxy-quinoxalin-6-yl]oxyethyl N,N-dimethylcarbamate] | < 10 nM | 5 to 20 nM | < 5 nM
COc1cc2nc(CO)c(-c3ccc(CC(=O)Nc4cc(C5(C(F)(F)F)CC5)on4)c(F)c3)nc2cc1OC [Example 137, 2-[2-fluoro-4-[3-(hydroxymethyl)-6,7-dimethoxy-quinoxalin-2-yl]phenyl]-N-[5-[1-(trifluoro-methyl)cyclopropyl]isoxazol-3-yl]acetamide] | < 10 nM | < 5 nM | < 5 nM
COc1cc2ncc(-c3ccc(CC(=O)Nc4cc(C(C)(C)C(F)(F)F)on4)c(F)c3)c(Cl)c2cc1OC [Example 138, 2-[4-(4-chloro-6,7-dimethoxy-3-quinolyl)-2-fluoro-phenyl]-N-[5-(2,2,2-trifluoro-1,1-dimethyl-ethyl)isoxazol-3-yl]acetamide] | < 10 nM | < 5 nM | < 5 nM
COc1cc2ncc(-c3ccc(CC(=O)Nc4cc(C(C)(C)C)nn4C)c(F)c3)nc2cc1OC [Example 139, N-(5-tert-butyl-2-methyl-pyrazol-3-yl)-2-[4-(6,7-dimethoxyquinoxalin-2-yl)-2-fluoro-phenyl]acetamide] | < 10 nM | < 5 nM | < 5 nM
COc1cc2ncc(-c3ccc(CC(=O)Nc4cc(C(C)(C)C)nn4-c4ccccc4)c(F)c3)nc2cc1OC [Example 140, N-(5-tert-butyl-2-phenyl-pyrazol-3-yl)-2-[4-(6,7-dimethoxyquinoxalin-2-yl)-2-fluoro-phenyl]acetamide] | < 10 nM | 5 to 20 nM | < 5 nM
COc1cc2ncc(-c3ccc(CC(=O)Nc4cc(C(C)(C)C(F)(F)F)on4)c(F)c3)c(N=[N+]=[N-])c2cc1OC [Example 141, 2-[4-(4-azido-6,7-dimethoxy-3-quinolyl)-2-fluoro-phenyl]-N-[5-(2,2,2-trifluoro-1,1-dimethyl-ethyl)isoxazol-3-yl]acetamide] | < 10 nM | 5 to 20 nM | < 5 nM
CCN1CC(Oc2cc3ncc(-c4ccc(CC(=O)Nc5cc(C6(C(F)(F)F)CC6)on5)c(F)c4)nc3cc2OC)C1 [Example 142, 2-[4-[6-(1-ethylazetidin-3-yl)oxy-7-methoxy-quinoxalin-2-yl]-2-fluoro-phenyl]-N-[5-[1-(trifluoro-methyl)cyclopropyl]isoxazol-3-yl]acetamide] | < 10 nM | < 5 nM | < 5 nM
